Experimental data as given in US6960582B2, “Guanidino compounds” (Chiron Corporation, priority 2001, dated 2005).

Biological target: MC4-R (Homo sapiens, UniProt P32245)
Experiment: cAMP Scintillation Proximity Assay (SPA) in cells expressing MC4-R
Assay type: cell-based
Details: intercellular cAMP concentration by SPA kit, read-out: in vitro potency (as measured by EC50 value)
Procedure: EC50 values of test compounds were determined by treating cells expressing MC4-R with test compound and lysing the cells and measuring intercellular cAMP concentration with an Amersham-Pharmacia RPA-559 cAMP Scintillation Proximity Assay (SPA) kit. The following compounds were synthesized and tested according to this assay. The following compounds are merely illustrative and should not be construed as limiting of the instant invention.

Chain of MC4-R (P32245 whole entry, species assumed): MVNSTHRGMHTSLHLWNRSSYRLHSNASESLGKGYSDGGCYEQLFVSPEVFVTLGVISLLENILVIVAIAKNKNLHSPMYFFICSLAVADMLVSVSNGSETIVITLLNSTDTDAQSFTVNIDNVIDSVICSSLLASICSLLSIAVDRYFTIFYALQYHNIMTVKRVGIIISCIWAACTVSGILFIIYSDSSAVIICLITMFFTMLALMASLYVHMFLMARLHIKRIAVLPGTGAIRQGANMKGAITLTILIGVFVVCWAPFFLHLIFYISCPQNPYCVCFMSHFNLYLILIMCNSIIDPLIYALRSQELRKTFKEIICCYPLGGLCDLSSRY

EC50, < 3 µM:
C[C@@H]1[C@@H](N=C(Nc2ccc3c(c2)CN(CCc2ccc(F)cc2F)C3=O)N2CCN[C@@H](C)C2)C[C@H]2C[C@@H]1C2(C)C [Example 18, (3S)-N-{2-[2-(2,4-difluorophenyl)ethyl]-1-oxo-2,3-dihydro-1H-isoindol-5-yl}-3-methyl-N′-[(1S,2S,3S,5R)-2,6,6-trimethylbicyclo[3.1.1]hept-3-yl]piperazine-1-carboximidamide]
C[C@@H]1[C@@H](N=C(Nc2ccc3c(c2)C(=O)N(CCc2ccc(F)cc2F)C3)N2CCN[C@@H](C)C2)C[C@H]2C[C@@H]1C2(C)C [Example 19, (3S)-N-{2-[2-(2,4-difluorophenyl)ethyl]-3-oxo-2,3-dihydro-1H-isoindol-5-yl}-3-methyl-N′-[(1S,2S,3S,5R)-2,6,6-trimethylbicyclo[3.1.1]hept-3-yl]piperazine-1-carboximidamide]
Cc1ccc(CCN2Cc3cc(NC(=N[C@H]4C[C@H]5C[C@@H]([C@@H]4C)C5(C)C)N4CCN[C@@H](C)C4)ccc3C2=O)c(C)c1 [Example 20, (3S)-N-{2-[2-(2,4-dimethylphenyl)ethyl]-1-oxo-2,3-dihydro-1H-isoindol-5-yl}-3-methyl-N′-[(1S,2S,3S,5R)-2,6,6-trimethylbicyclo[3.1.1]hept-3-yl]piperazine-1-carboximidamide]
Cc1ccc(CCN2Cc3ccc(NC(=N[C@H]4C[C@H]5C[C@@H]([C@@H]4C)C5(C)C)N4CCN[C@@H](C)C4)cc3C2=O)c(C)c1 [Example 21, (3S)-N-{2-[2-(2,4-dimethylphenyl)ethyl]-3-oxo-2,3-dihydro-1H-isoindol-5-yl}-3-methyl-N′-[(1S,2S,3S,5R)-2,6,6-trimethylbicyclo[3.1.1]hept-3-yl]piperazine-1-carboximidamide]
C[C@@H]1[C@@H](N=C(Nc2ccc3c(c2)CCN(CCc2ccc(Cl)cc2Cl)C3=O)N2CCN[C@@H](C)C2)C[C@H]2C[C@@H]1C2(C)C [Example 22, (3S)-N-{2-[2-(2,4-dichlorophenyl)ethyl]-1-oxo-1,2,3,4-tetrahydroisoquinolin-6-yl}-3-methyl-N′-[(1S,2S,3S,5R)-2,6,6-trimethylbicyclo[3.1.1]hept-3-yl]piperazine-1-carboximidamide]
C[C@@H]1[C@@H](/N=C(\Nc2ccc3[nH]c(CCc4ccc(Cl)cc4Cl)nc3c2)N2CCN[C@@H](C)C2)C[C@H]2C[C@@H]1C2(C)C [Example 23, (3S)-N-{2-[2-(2,4-dichlorophenyl)ethyl]-1H-benzimidazol-5-yl}-3-methyl-N′-[(1S,2S,3S,5R)-2,6,6-trimethylbicyclo[3.1.1]hept-3-yl]piperazine-1-carboximidamide]
Cc1ccc(CCc2nc3ccc(NC(=N[C@H]4C[C@H]5C[C@@H]([C@@H]4C)C5(C)C)N4CCN[C@@H](C)C4)cc3[nH]2)c(C)c1 [Example 24, (3S)-N-{2-[2-(2,4-dimethylphenyl)ethyl]-1H-benzimidazol-6-yl}-3-methyl-N′-[(1S,2S,3S,5R)-2,6,6-trimethylbicyclo[3.1.1]hept-3-yl]piperazine-1-carboximidamide]
C[C@@H]1[C@@H](N=C(Nc2ccc3nc(CCc4ccc(F)cc4Cl)[nH]c3c2)N2CCN[C@@H](C)C2)C[C@H]2C[C@@H]1C2(C)C [Example 25, (3S)-N-{2-[2-(2-chloro-4-fluorophenyl)ethyl]-1H-benzimidazol-6-yl}-3-methyl-N′-[(1S,2S,3S,5R)-2,6,6-trimethylbicyclo[3.1.1]hept-3-yl]piperazine-1-carboximidamide]
